Key:
CrtWBsp = molecular target: T1, CrtWBsp (Brevundimonas sp. NBRC 101024, UniProt Q4W8B8); assay: HPLC of echinenone and canthaxanthin formed by crude extract; assay type: biochemical; settings: Fe2+, 2-oxoglutarate, ascorbate, NADPH, ATP; pH 8.0; 30 °C; 3 h
T1 construct: gene crtW
T1 sequence (Q4W8B8 1-244): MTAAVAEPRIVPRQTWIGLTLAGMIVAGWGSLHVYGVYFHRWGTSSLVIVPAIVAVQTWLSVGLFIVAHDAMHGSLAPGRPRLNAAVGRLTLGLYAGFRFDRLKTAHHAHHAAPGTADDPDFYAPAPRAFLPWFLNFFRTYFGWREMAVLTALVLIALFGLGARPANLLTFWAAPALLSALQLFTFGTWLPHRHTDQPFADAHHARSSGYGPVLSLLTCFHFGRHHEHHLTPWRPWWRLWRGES

CzW1 = molecular target: T2, CzW1 (Chromochloris zofingiensis, UniProt Q5U931); assay: as above; assay type: biochemical; settings: Fe2+, 2-oxoglutarate, ascorbate, NADPH, ATP; pH 8.0; 30 °C; 3 h
T2 construct: gene bkt/crto
T2 sequence (Q5U931 1-312): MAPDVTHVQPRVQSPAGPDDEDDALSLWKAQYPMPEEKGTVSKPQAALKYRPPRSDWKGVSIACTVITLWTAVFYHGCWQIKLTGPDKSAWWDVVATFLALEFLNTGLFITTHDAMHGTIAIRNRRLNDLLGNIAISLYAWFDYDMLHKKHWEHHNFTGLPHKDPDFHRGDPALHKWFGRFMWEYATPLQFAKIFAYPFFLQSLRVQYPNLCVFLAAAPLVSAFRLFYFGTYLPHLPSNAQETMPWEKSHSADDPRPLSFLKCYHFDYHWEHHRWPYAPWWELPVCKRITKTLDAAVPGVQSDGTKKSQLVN

SMILES: CC1=C(/C=C/C(C)=C/C=C/C(C)=C/C=C/C=C(C)/C=C/C=C(C)/C=C/C2=C(C)CCCC2(C)C)C(C)(C)CCC1 [β-carotene]
- HPLC of echinenone and canthaxanthin formed by crude extract (CrtWBsp): β-carotene ketolase from p30CrtWBsp was more efficient in the production of echinenone and canthaxanthin
- HPLC of echinenone and canthaxanthin formed by crude extract (CzW1): canthaxanthin was only detected in enzymatic solution containing protein extracts from E. coli with pCrtWBsp and pCzW1
